Source: ChEMBL document CHEMBL1135258, “Substrate spectrum of tyrocidine thioesterase probed with randomized peptide N-acetylcysteamine thioesters” (Bioorg Med Chem Lett, 2002)

How the values were obtained:
[1] = molecular target: T1, Thioesterase GrsT homolog tycF (Brevibacillus brevis) (UniProt O30412); experiment: Apparent kinetic constant (Kcat) for tyrocidine thioesterase amplified from Bacillus brevis (ATCC8185)
T1 sequence (whole entry): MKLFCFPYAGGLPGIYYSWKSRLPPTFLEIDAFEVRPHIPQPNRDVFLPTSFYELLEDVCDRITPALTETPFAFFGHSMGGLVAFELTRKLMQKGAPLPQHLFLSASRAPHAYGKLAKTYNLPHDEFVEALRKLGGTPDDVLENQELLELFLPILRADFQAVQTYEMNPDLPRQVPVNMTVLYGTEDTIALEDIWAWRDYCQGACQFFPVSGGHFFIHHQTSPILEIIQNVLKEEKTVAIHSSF

[2] = molecular target: T1, Thioesterase GrsT homolog tycF (Brevibacillus brevis); experiment: Catalytic efficiency (Kcat/Km) was determined; design: unit not given here

Compound | k cat [1] [min⁻¹] | Ratio [2]
CC(=O)NCCSC(=O)[C@H](CC(C)C)NC(=O)[C@H](CCCN)NC(=O)[C@@H](NC(=O)[C@H](Cc1ccc(O)cc1)NC(=O)[C@H](CCC(N)=O)NC(=O)[C@H](CC(N)=O)NC(=O)[C@H](Cc1ccccc1)NC(=O)[C@H](Cc1ccccc1)NC(=O)[C@@H]1CCCN1C(=O)[C@H](N)Cc1ccccc1)C(C)C | 6.3 | 1.3
CC(=O)NCCSC(=O)[C@H](CC(C)C)NC(=O)[C@H](CCCN)NC(=O)[C@@H](NC(=O)[C@H](Cc1ccc(O)cc1)NC(=O)[C@H](CCC(N)=O)NC(=O)[C@H](CC(N)=O)NC(=O)[C@@H]1CCCN1C(=O)[C@H](Cc1ccccc1)NC(=O)[C@@H]1CCCN1C(=O)[C@H](N)Cc1ccccc1)C(C)C | 15 | 0.11
CC(=O)NCCSC(=O)[C@H](CC(C)C)NC(=O)[C@H](CCCN)NC(=O)[C@@H](NC(=O)[C@H](Cc1ccc(O)cc1)NC(=O)[C@H](CCC(N)=O)NC(=O)[C@H](CC(N)=O)NC(=O)[C@@H](NC(=O)[C@H](Cc1ccccc1)NC(=O)[C@@H]1CCCN1C(=O)[C@H](N)Cc1ccccc1)C(C)C)C(C)C | 27 | 0.19
CC(=O)NCCSC(=O)[C@H](CC(C)C)NC(=O)[C@H](CCCN)NC(=O)[C@H](CCC(N)=O)NC(=O)[C@H](Cc1ccc(O)cc1)NC(=O)[C@H](CCC(N)=O)NC(=O)[C@H](CC(N)=O)NC(=O)[C@@H](Cc1ccccc1)NC(=O)[C@H](Cc1ccccc1)NC(=O)[C@@H]1CCCN1C(=O)[C@H](N)Cc1ccccc1 | 14 | 0.22
CC(=O)NCCSC(=O)[C@H](CC(C)C)NC(=O)[C@H](CCCN)NC(=O)[C@@H](NC(=O)[C@H](Cc1ccc(O)cc1)NC(=O)[C@H](CCC(N)=O)NC(=O)[C@H](CC(N)=O)NC(=O)[C@H](C)NC(=O)[C@H](Cc1ccccc1)NC(=O)[C@@H]1CCCN1C(=O)[C@H](N)Cc1ccccc1)C(C)C | 11 | 0.6
CC(=O)NCCSC(=O)[C@H](CC(C)C)NC(=O)[C@H](CCCN)NC(=O)[C@@H](NC(=O)[C@H](Cc1ccc(O)cc1)NC(=O)[C@H](CCC(N)=O)NC(=O)[C@H](CC(N)=O)NC(=O)[C@H](Cc1c[nH]cn1)NC(=O)[C@H](Cc1ccccc1)NC(=O)[C@@H]1CCCN1C(=O)[C@H](N)Cc1ccccc1)C(C)C | 12 | 0.15

More lines, now with the values ahead:

k cat [1] [min⁻¹] | Ratio [2] | Compound
20 | 2.63 | CC(=O)NCCSC(=O)[C@H](CC(C)C)NC(=O)[C@H](CCCN)NC(=O)[C@@H](NC(=O)[C@H](CC(N)=O)NC(=O)[C@H](CCC(N)=O)NC(=O)[C@H](CC(N)=O)NC(=O)[C@@H](Cc1ccccc1)NC(=O)[C@H](Cc1ccccc1)NC(=O)[C@@H]1CCCN1C(=O)[C@H](N)Cc1ccccc1)C(C)C
43 | 0.32 | CC(=O)NCCSC(=O)[C@H](CC(C)C)NC(=O)[C@H](CCCN)NC(=O)[C@@H](NC(=O)[C@H](Cc1ccc(O)cc1)NC(=O)[C@H](CC(C)C)NC(=O)[C@H](CC(N)=O)NC(=O)[C@@H](Cc1ccccc1)NC(=O)[C@H](Cc1ccccc1)NC(=O)[C@@H]1CCCN1C(=O)[C@H](N)Cc1ccccc1)C(C)C
6.6 | 0.57 | CC(=O)NCCSC(=O)[C@H](CC(C)C)NC(=O)[C@H](CCCN)NC(=O)[C@@H](NC(=O)[C@H](Cc1ccc(O)cc1)NC(=O)[C@H](CCC(N)=O)NC(=O)[C@H](CC(N)=O)NC(=O)[C@H](CCC(=O)O)NC(=O)[C@H](Cc1ccccc1)NC(=O)[C@@H]1CCCN1C(=O)[C@H](N)Cc1ccccc1)C(C)C
8.3 | 0.28 | CC(=O)NCCSC(=O)[C@H](CC(C)C)NC(=O)[C@H](CCCN)NC(=O)[C@@H](NC(=O)[C@H](Cc1ccc(O)cc1)NC(=O)[C@H](CCC(N)=O)NC(=O)[C@H](CC(N)=O)NC(=O)[C@H](CC(C)C)NC(=O)[C@H](Cc1ccccc1)NC(=O)[C@@H]1CCCN1C(=O)[C@H](N)Cc1ccccc1)C(C)C
11 | 0.33 | CC[C@H](C)[C@H](NC(=O)[C@H](Cc1ccccc1)NC(=O)[C@@H]1CCCN1C(=O)[C@H](N)Cc1ccccc1)C(=O)N[C@@H](CC(N)=O)C(=O)N[C@@H](CCC(N)=O)C(=O)N[C@@H](Cc1ccc(O)cc1)C(=O)N[C@H](C(=O)N[C@@H](CCCN)C(=O)N[C@@H](CC(C)C)C(=O)SCCNC(C)=O)C(C)C
